From the supplement of paper PMC5908809

Key:
[1] = test system: SNK-6 (IL-2 2.5 ng/mL); assay: drug sensitivity score (DSS) (DSS units); higher = more sensitive; extreme values may be limits of the assay; settings: 72 h
[2] = test system: NK-92 (IL-2 2.5 ng/mL); assay: as above; settings: 72 h
[3] = test system: normal primary NK cells, pool 3 (3 donors) (IL-2 2.5 ng/mL); assay: as above; settings: 72 h
[4] = test system: normal primary NK cells, pool 1 (3 donors) (IL-2 2.5 ng/mL); assay: as above; settings: 72 h
[5] = test system: NK-YS (IL-2 2.5 ng/mL); assay: as above; settings: 72 h
[6] = test system: IMC-1 (IL-2 20 ng/mL); assay: as above; settings: 72 h
[7] = test system: YT (IL-2 2.5 ng/mL); assay: as above; settings: 72 h
[8] = test system: NKL (IL-2 2.5 ng/mL); assay: as above; settings: 72 h
[9] = test system: DERL-7 (IL-2 2.5 ng/mL); assay: as above; settings: 72 h
[10] = test system: normal primary NK cells, pool 1 (3 donors), resting (IL-2 0 ng/mL); assay: as above; settings: 72 h
[11] = test system: KAI3 (IL-2 2.5 ng/mL); assay: as above; settings: 72 h
[12] = test system: normal primary NK cells, pool 2 (3 donors) (IL-2 2.5 ng/mL); assay: as above; settings: 72 h
[13] = test system: KHYG-1 (IL-2 2.5 ng/mL); assay: as above; settings: 72 h
[14] = test system: normal NK cells expanded with K562-aAPC; assay: as above; settings: 72 h; IL-2 2.5 ng/mL
Procedure: (§1)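 Drug sensitivity and resistance testing on K562-aAPC-expanded normal NK cells: 5 concentrations (10-fold steps over a 10,000-fold range), 72 h at 37 °C, viability by CellTiter-Glo normalised to DMSO and benzethonium chloride controls; DSS from the fitted curve.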

[15] = test system: SNK-6 (IL-2 2.5 ng/mL); assay: percent inhibition of viability; higher = more inhibition; settings: 72 h
[16] = test system: NK-92 (IL-2 2.5 ng/mL); assay: as above; settings: 72 h
[17] = test system: normal primary NK cells, pool 3 (3 donors) (IL-2 2.5 ng/mL); assay: as above; settings: 72 h
[18] = test system: normal primary NK cells, pool 1 (3 donors) (IL-2 2.5 ng/mL); assay: as above; settings: 72 h
[19] = test system: NK-YS (IL-2 2.5 ng/mL); assay: as above; settings: 72 h
[20] = test system: IMC-1 (IL-2 20 ng/mL); assay: as above; settings: 72 h
[21] = test system: YT (IL-2 2.5 ng/mL); assay: as above; settings: 72 h
[22] = test system: NKL (IL-2 2.5 ng/mL); assay: as above; settings: 72 h
[23] = test system: DERL-7 (IL-2 2.5 ng/mL); assay: as above; settings: 72 h
[24] = test system: normal primary NK cells, pool 1 (3 donors), resting (IL-2 0 ng/mL); assay: as above; settings: 72 h
[25] = test system: KAI3 (IL-2 2.5 ng/mL); assay: as above; settings: 72 h
[26] = test system: normal primary NK cells, pool 2 (3 donors) (IL-2 2.5 ng/mL); assay: as above; settings: 72 h
[27] = test system: KHYG-1 (IL-2 2.5 ng/mL); assay: as above; settings: 72 h
[28] = test system: normal NK cells expanded with K562-aAPC; assay: as above; settings: 72 h, IL-2 2.5 ng/mL
Procedure: as §1

CCOC(=O)CCNc1cc(N2CCc3ccccc3CC2)nc(-c2ccccn2)n1 [GSK-J4] (max concentration tested 100000 nM)
Settings	drug sensitivity score
[1]	18.1
[2]	25.2
[3]	19.8
[4]	20.2
[5]	17.6
[6]	22.9
[7]	18.9
[8]	17.6
[9]	18.9
[10]	22.6
[11]	17.5
[12]	17.5
[13]	21.2
[14]	16.9

percent inhibition of viability [%]
Settings	10 nM	100 nM	1000 nM	10000 nM	100000 nM
[15]	-0.34	7.09	6.11	94.8	99.7
[16]	-9.95	-0.92	60.9	104	98.1
[17]	-2.08	-5.17	19.9	94	99.5
[18]	-2.65	-4.87	13.6	97.9	99.8
[19]	-1.22	-3.86	-1.41	98.6	99.6
[20]	-5.61	-2.96	39.7	97	100
[21]	-1.98	-3.85	4.52	104	99.3
[22]	-0.55	-7.46	-8.29	104	98.2
[23]	-0.14	7.18	14.4	93.4	99.4
[24]	-7.04	-16	34.7	96.2	99
[25]	-4.58	1.93	2.78	94.3	98.9
[26]	-5.62	-2.09	5.39	92.4	98.7
[27]	-1.03	-1.4	20	101	99.2
[28]	-1.25	-3.45	-1.63	93.7	99.5

C[C@@H]1C=C2C(=O)O[C@@H]3CC[C@H](C1)[C@]23O [Galiellalactone] (max concentration tested 25000 nM)
Settings	drug sensitivity score
[1]	7.97
[2]	7.95
[3]	5.23
[4]	7.72
[5]	6.25
[6]	1.6
[7]	4.18
[8]	2.18
[9]	10.3
[10]	8.44
[11]	9.99
[12]	6.94
[13]	6.22
[14]	6.5

percent inhibition of viability [%]
Settings	2.5 nM	25 nM	250 nM	2500 nM	25000 nM
[15]	-13.8	-22	-28.1	20.7	86
[16]	-18	-14.4	-12.5	13.8	106
[17]	-11.4	1.14	-3.83	2.67	87.7
[18]	-8.48	6.95	7.01	15.2	93.7
[19]	0.84	-3.46	3.95	18.4	64.7
[20]	-4.12	-5.59	-4.92	-11.8	42.7
[21]	-7.44	-15.7	-6.7	-3.78	81
[22]	-8.21	-5.52	-6.69	-5.94	49.3
[23]	-3.32	-2.23	6.78	39.3	101
[24]	-12.7	5.72	9.42	27.4	89.3
[25]	0.86	-9.38	4.52	34.1	99.1
[26]	-9.13	7.06	4.86	10.7	93.2
[27]	-7.95	-9.83	-6.41	10.7	80.1
[28]	-7.73	-4.65	-5.56	8.69	91.9
